The record followed here is patent US6489481B1, “Method for treating neurological disorders” (AstraZeneca AB, priority 1998, dated 2002).

Where a name gives a salt, the structure may show the parent alone.

Assay [1] has as its target T1, emopamil binding protein (Cavia porcellus, UniProt Q60490).
T1 construct: Guinea pig liver membranes: 40 mg/mL original wet weight; from tissue; host or cells: guinea pig liver membranes (male guinea pigs)
T1 sequence (Q60490 1-229): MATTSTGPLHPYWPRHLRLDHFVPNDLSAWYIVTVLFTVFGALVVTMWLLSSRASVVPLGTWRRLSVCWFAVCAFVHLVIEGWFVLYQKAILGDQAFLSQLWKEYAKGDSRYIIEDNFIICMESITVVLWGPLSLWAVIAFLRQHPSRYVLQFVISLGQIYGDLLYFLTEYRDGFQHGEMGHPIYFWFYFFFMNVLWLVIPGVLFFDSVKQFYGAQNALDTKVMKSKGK
As to the kind of experiment: Displacement of 3H-emopamil binding to guinea pig liver membranes. Particulars: 0.96 nM (-)-3H-emopamil. The protocol:
Displacement of ^3H-Emopamil Binding to Guinea Pig Liver Membranes
The method of displacement of ^3H-emopamil binding was a modification of Zech et al (1991) Eur. J. Pharm. 208:119-130.
The Guinea-pig liver membranes were prepared as follows: Male guinea pigs were sacrificed by CO2 asphyxiation with dry ice. The livers were quickly excised and weighed and rinsed in membrane preparation buffer containing 10 mM Hepes, 1 mM Tris base-EDTA, 250 mM sucrose, pH 7.4. The livers were then minced homogenized in 10 times volume with a motor driven Teflon-glass homogenizer with three strokes on ice. The homogenate was centrifuged at 1000×g in a SS34 rotor for 5 minutes at 4° C. The supernatant was filtered through 4 layers of gauze and then centrifuged at 8000×g for 10 minutes 4° C. This resulting supernatant was centrifuged at 40,000×g for 15 minutes at 4° C. The resulting pellet was resuspended in assay buffer and centrifuged again at 40,000×g for 15 minutes at 4° C. This pellet was resuspended in assay buffer (2.5 fold with respect to original wet weight) and homogenized with one stroke with the Teflon-glass homogenizer. Aliquots of 1 mL were stored at −70° C.
The displacement assay was performed as follows: The reaction mixture contained: Assay buffer: 10 mM Tris-HCl, 0.1 mM phenylmethylsulfonyl fluoride (PMSF), 0.2% bovine serum albumin (BSA), pH 7.4 at […]. […]
(Loss of bound radioactivity is the signal in a displacement assay; it reports binding, not function.)

Assay [2] has as its system PC12 cells. The assay is described as follows: Inhibition of apoptosis in PC12 cells induced by NGF withdrawal (Cell Death Detection ELISA). Format: cell-based, rat. How it is done:
Inhibition of Apoptosis in PC12 Cells Induced by NGF Withdrawal
Rat PC12 cells (ATCC Accession Number CRL-1721) were grown in RPMI0-1640 buffer containing 10% heat-inactivated Fetal Bovine Serum (FBS) and 1% L-glutamine (Gibco). Cells were plated in 100 mm Collagen I Falcon plates (Becton Dickinson)at a density of ˜1×10^6-2×10^6 and passed every other day at 1:10 ratio (cells were trypsinized and centrifuged at 1000 rpm for 5 min. Cells were resuspended and plated at the density of 1-2×10^6 cells). Tamoxifen was dissolved in DMSO at a concentration of 10 mM. Subsequent dilutions were done in PC12 cell growth medium containing 1% FBS. […]
Cells were harvested at various time points after the NGF withdrawal procedure to determine the time course of cell death. […] Compounds were used at various concentrations and the extent of apoptosis that occurred in the presence of compounds was expressed as a percentage relative to control cultures that were exposed to vehicle only. […]
Cell death was measured using a Cell Death Detection ELISA (Boehringer-Mannheim Cat# 1774425) according to manufacturers instructions.The ELISA is a photometric enzyme-immunoassay which determines the amount of cytoplasmic histone-associated-DNA-fragments after induced cell death. […]
(ELISA stands for enzyme-linked immunosorbent assay.)

Assay [3] deals with mouse cortical neurons. The assay is described as follows: Inhibition of NMDA-induced death of mouse cortical neurons in primary cell culture (LDH). The class given is cell-based. To be noted: result in words; NMDA-induced neuronal death is the patent's necrosis model.
Experimental: Inhibition of NMDA-induced Death of Mouse Cortical Neurons in Primary Cell Culture
A glial feeder layer was prepared from post-natal day 1 or 2 mice. Cortices were dissected in a Ca^2+/Mg^2+-free balanced salt solution, minced, incubated in media stock (MS: GIBCO's MEM supplemented with bicarbonate, glucose, and glutamine) containing trypsin for 30 minutes at 37° C., and centrifuged at 1500 g for 5 minutes to produce a cell pellet. The pellet was re-suspended in plating media (MS supplemented with horse and fetal calf serum) and triturated with a glass pasteur pipette. Cells were plated in 24-well Falcon Primaria tissue culture dishes at a density of 0.5 hemispheres per plate. The dishes had been coated overnight with 10 mg/ml mouse laminin and 25 mg/ml poly-lysine, then washed three times with water. The glial feeder layer was maintained in a humidified atmosphere of 5% CO2/95% air at 37° C. for two weeks. […]
LDH activity was measured as follows: 50 ml of cell-culture media from each well was mixed with 200 ml 0.1 M KH2PO4 containing 30 mg NADH, in a 96-well microtitre plate. After 10 minutes at room temperature, 30 ml of 2.4 mM sodium pyruvate was added, and the absorbance of this solution at 340nm was immediately measured at 15 second intervals for approximately 6 minutes using a Molecular Devices Spectromax 250 plate-reader. […]

As to `CC/C(=C(/c1ccc(OCCN(C)C)cc1)c1ccc(OC(=O)C(C)(C)C)cc1)c1ccccc1` [Example 11, 2,2-dimethyl-, 4-[1-[4-[2-(dimethylamino)ethoxy]phenyl]-2-phenyl-1-butenyl]phenyl Propanoic acid ester, (E)-], the concentration for half-maximal inhibition (IC50) (as a rule, the midpoint of a concentration-inhibition curve) in assay [1] was 75 nM. The “percentage in the PC12 assay (extent of apoptosis relative to control)” value in assay [2] (relative to vehicle-only control cultures, 100% = no inhibition of apoptosis, 0% = total inhibition) is listed as 41%.
For the molecule `CC/C(=C(\c1ccccc1)c1ccc(OCCN(C)C)cc1)c1ccccc1` [tamoxifen citrate], in assay [2] (result in words), the inhibition of apoptosis entry is “inhibit both apoptosis and necrosis”. Besides, the inhibition of necrosis result in assay [3] is “inhibit both apoptosis and necrosis”.
